In patent US20130053381A1, “2,4-DIOXO-1,4-DIHYDRO-2H-QUINAZOLIN-3-YL-SULFONAMIDE DERIVATIVES” (NOVARTIS AG, priority 2010, published 2013):

Test system: OF1 mice
Assay: Maximal electroshock test (MES Test)
Type: in vivo
Conditions: Mus musculus, po; 50 mg/kg, p.o., pre-treatment time −1 h; read-out: %-Protection
Description: Compounds of the invention were tested in OF1 mice using the maximal electroshock test (MES Test) described in detail by Schmutz et al., Naunyn-Schmiedeberg's Arch Pharmacol 1990, 342, 61-66. Briefly, generalized tonic-clonic convulsions of the hind extremities were induced by passing electrical current through temporal electrodes (50 Hz, 18 mA, 0.2s). […] 30 mg/kg carbamazepine was used as a positive control; mice were classified as protected by a compound If the duration of the seizure lasted only 3 second or less. Five mice were used for each treatment condition and the percentage of protected mice was used as readout (i.e. a compound could give 0%, 20%, 40%, 60%, 80% or 100% protection). Usually, compounds of the invention or their parents were given at a dose of 50 mg/kg, p.o., 1 hour prior to induction of convulsions (i.e. “pre-treatment time −1 h”).
ED50 values (ED: effective dose) were calculated using GraphPad Prism, v4.02. after shock administration, mouse blood was collected for determination of compounds' blood exposure.

Row | SMILES | responders at 50 mg/kg [%]
1 | CCC(=O)N(n1c(=O)[nH]c2cc(C(C)C)c(-c3ccnn3C)cc2c1=O)S(C)(=O)=O [Example 3.12, N-[7-Isopropyl-6-(2-methyl-2H-pyrazol-3-yl)-2,4-dioxo-1,4-dihydro-2H-quinazolin-3-yl]-N-propionyl-methanesulfonamide] | 100
2 | CCCC(=O)N(n1c(=O)[nH]c2cc(C(C)C)c(-c3ccnn3C)cc2c1=O)S(C)(=O)=O [Example 3.13, N-Butyryl-N-[7-isopropyl-6-(2-methyl-2H-pyrazol-3-yl)-2,4-dioxo-1,4-dihydro-2H-quinazolin-3-yl]-methanesulfonamide] | 100
3 | CCCCCC(=O)N(n1c(=O)[nH]c2cc(C(C)C)c(-c3ccnn3C)cc2c1=O)S(C)(=O)=O [Example 3.14, N-Hexanoyl-N-[7-isopropyl-6-(2-methyl-2H-pyrazol-3-yl)-2,4-dioxo-1,4-dihydro-2H-quinazolin-3-yl]-methanesulfonamide] | 100
4 | CC(C)C(=O)N(n1c(=O)[nH]c2cc(C(C)C)c(-c3ccnn3C)cc2c1=O)S(C)(=O)=O [Example 3.16, N-Isobutyryl-N-[7-isopropyl-6-(2-methyl-2H-pyrazol-3-yl)-2,4-dioxo-1,4-dihydro-2H-quinazolin-3-yl]-methanesulfonamide] | 60
5 | CC(=O)OCC(=O)N(n1c(=O)[nH]c2cc(C(C)C)c(-c3ccnn3C)cc2c1=O)S(C)(=O)=O [Example 3.17, Acetic acid 2-{[7-isopropyl-6-(2-methyl-2H-pyrazol-3-yl)-2,4-dioxo-1,4-dihydro-2H-quinazolin-3-yl]-methanesulfonyl-amino}-2-oxo-ethyl ester] | 100
6 | CSCCC(=O)N(n1c(=O)[nH]c2cc(C(C)C)c(-c3ccnn3C)cc2c1=O)S(C)(=O)=O [Example 3.18, N-[7-Isopropyl-6-(2-methyl-2H-pyrazol-3-yl)-2,4-dioxo-1,4-dihydro-2H-quinazolin-3-yl]-N-(3-methylsulfanyl-propionyl)-methanesulfonamide] | 100
7 | CCOC(=O)N(n1c(=O)[nH]c2cc(C(C)C)c(-c3ccnn3C)cc2c1=O)S(C)(=O)=O [Example 3.19, [7-Isopropyl-6-(2-methyl-2H-pyrazol-3-yl)-2,4-dioxo-1,4-dihydro-2H-quinazolin-3-yl]-methanesulfonyl-carbamic acid ethyl ester] | 100
8 | CCCOC(=O)N(n1c(=O)[nH]c2cc(C(C)C)c(-c3ccnn3C)cc2c1=O)S(C)(=O)=O [Example 3.20, [7-Isopropyl-6-(2-methyl-2H-pyrazol-3-yl)-2,4-dioxo-1,4-dihydro-2H-quinazolin-3-yl]-methanesulfonyl-carbamic acid propyl ester] | 100
9 | CCCCOC(=O)N(n1c(=O)[nH]c2cc(C(C)C)c(-c3ccnn3C)cc2c1=O)S(C)(=O)=O [Example 3.21, [7-Isopropyl-6-(2-methyl-2H-pyrazol-3-yl)-2,4-dioxo-1,4-dihydro-2H-quinazolin-3-yl]-methanesulfonyl-carbamic acid butyl ester] | 100
10 | CCCCCCOC(=O)N(n1c(=O)[nH]c2cc(C(C)C)c(-c3ccnn3C)cc2c1=O)S(C)(=O)=O [Example 3.22, [7-Isopropyl-6-(2-methyl-2H-pyrazol-3-yl)-2,4-dioxo-1,4-dihydro-2H-quinazolin-3-yl]-methanesulfonyl-carbamic acid hexyl ester] | 100
11 | CC(C)c1cc2[nH]c(=O)n(N(C(=O)C(C)(C)C)S(C)(=O)=O)c(=O)c2cc1-c1ccnn1C [Example 3.23, N-(2,2-Dimethyl-propionyl)-N-[7-isopropyl-6-(2-methyl-2H-pyrazol-3-yl)-2,4-dioxo-1,4-dihydro-2H-quinazolin-3-yl]-methanesulfonamide] | 20
12 | CC(=O)N(n1c(=O)c2cc(-c3ccnn3C)c(C(C)C)cc2n(C(C)=O)c1=O)S(C)(=O)=O [Example 3.24, N-Acetyl-N-[1-acetyl-7-isopropyl-6-(2-methyl-2H-pyrazol-3-yl)-2,4-dioxo-1,4-dihydro-2H-quinazolin-3-yl]-methanesulfonamide] | 100
13 | CCC(=O)N(n1c(=O)c2cc(-c3ccnn3C)c(C(C)C)cc2n(C(=O)CC)c1=O)S(C)(=O)=O [Example 3.25, N-[7-Isopropyl-6-(2-methyl-2H-pyrazol-3-yl)-2,4-dioxo-1-propionyl-1,4-dihydro-2H-quinazolin-3-yl]-N-propionyl-methanesulfonamide] | 100
14 | CCCC(=O)N(n1c(=O)c2cc(-c3ccnn3C)c(C(C)C)cc2n(C(=O)CCC)c1=O)S(C)(=O)=O [Example 3.26, N-Butyryl-N-[1-butyryl-7-isopropyl-6-(2-methyl-2H-pyrazol-3-yl)-2,4-dioxo-1,4-dihydro-2H-quinazolin-3-yl]-methanesulfonamide] | 80

Same assay, conditions: Mus musculus, po; Dose: 15 mg/kg, p.o. (footnote c), pre-treatment time −1 h; read-out: %-Protection

Row | SMILES | responders at 15 mg/kg [%]
15 | CC(C)COC(=O)N(n1c(=O)[nH]c2cc(C(C)C)c(-c3ccnn3C)cc2c1=O)S(C)(=O)=O [Example 3.03, [7-Isopropyl-6-(2-methyl-2H-pyrazol-3-yl)-2,4-dioxo-1,4-dihydro-2H-quinazolin-3-yl]-methanesulfonyl-carbamic acid isobutyl ester] | 40
16 | CC(C)COC(=O)N(n1c(=O)c2cc(-c3ccnn3C)c(C(C)C)cc2n(C(=O)OCC(C)C)c1=O)S(C)(=O)=O [Example 3.04, 3-(Isobutoxycarbonyl-methanesulfonyl-amino)-7-isopropyl-6-(2-methyl-2H-pyrazol-3-yl)-2,4-dioxo-3,4-dihydro-2H-quinazoline-1-carboxylic acid isobutyl ester] | 20
17 | COC(=O)N(n1c(=O)[nH]c2cc(C(C)C)c(-c3ccnn3C)cc2c1=O)S(C)(=O)=O [Example 3.05, [7-Isopropyl-6-(2-methyl-2H-pyrazol-3-yl)-2,4-dioxo-1,4-dihydro-2H-quinazolin-3-yl]-methanesulfonyl-carbamic acid methyl ester] | 60
18 | CCOC(=O)CCC(=O)N(n1c(=O)[nH]c2cc(C(C)C)c(-c3ccnn3C)cc2c1=O)S(C)(=O)=O [Example 3.06, 4-{[7-Isopropyl-6-(2-methyl-2H-pyrazol-3-yl)-2,4-dioxo-1,4-dihydro-2H-quinazolin-3-yl]-methanesulfonyl-amino}-4-oxo-butyric acid ethyl ester] | 100
19 | CCOC(=O)CC(=O)N(n1c(=O)[nH]c2cc(C(C)C)c(-c3ccnn3C)cc2c1=O)S(C)(=O)=O [Example 3.07, 3-{[7-Isopropyl-6-(2-methyl-2H-pyrazol-3-yl)-2,4-dioxo-1,4-dihydro-2H-quinazolin-3-yl]-methanesulfonyl-amino}-3-oxo-propionic acid ethyl ester] | 80
20 | CCOC(=O)CCCC(=O)N(n1c(=O)[nH]c2cc(C(C)C)c(-c3ccnn3C)cc2c1=O)S(C)(=O)=O [Example 3.08, 5-{[7-Isopropyl-6-(2-methyl-2H-pyrazol-3-yl)-2,4-dioxo-1,4-dihydro-2H-quinazolin-3-yl]-methanesulfonyl-amino}-5-oxo-pentanoic acid ethyl ester] | 100
21 | CCCCC(=O)N(n1c(=O)[nH]c2cc(C(C)C)c(-c3ccnn3C)cc2c1=O)S(C)(=O)=O [Example 3.09, N-[7-Isopropyl-6-(2-methyl-2H-pyrazol-3-yl)-2,4-dioxo-1,4-dihydro-2H-quinazolin-3-yl]-N-pentanoyl-methanesulfonamide] | 100
22 | CC(=O)OC(C)(C)C(=O)N(n1c(=O)[nH]c2cc(C(C)C)c(-c3ccnn3C)cc2c1=O)S(C)(=O)=O [Example 3.10, Acetic acid 2-{[7-isopropyl-6-(2-methyl-2H-pyrazol-3-yl)-2,4-dioxo-1,4-dihydro-2H-quinazolin-3-yl]-methanesulfonyl-amino}-1,1-dimethyl-2-oxo-ethyl ester] | 40

Same assay, conditions: Mus musculus, po; Dose: 15 mg/kg, p.o., pre-treatment time −2 h (footnotes a,c); read-out: %-Protection

Row | SMILES | responders at 15 mg/kg [%]
23 | CC(=O)OC(C)(C)C(=O)N(n1c(=O)c2cc(-c3ccnn3C)c(C(C)C)cc2n(C(=O)C(C)(C)OC(C)=O)c1=O)S(C)(=O)=O [Example 3.11, Acetic acid 2-[3-[(2-acetoxy-2-methyl-propionyl)-methanesulfonyl-amino]-7-isopropyl-6-(2-methyl-2H-pyrazol-3-yl)-2,4-dioxo-3,4-dihydro-2H-quinazolin-1-yl]-1,1-dimethyl-2-oxo-ethyl ester] | 40

Same assay, conditions: Mus musculus, po; Table 5; 50 mg/kg, p.o., pre-treatment time −0.25 h; read-out: %-Protection

Row | SMILES | responders at 50 mg/kg [%]
24 | CC(=O)N(n1c(=O)c2cc(-c3ccnn3C)c(C(C)C)cc2n(C(C)=O)c1=O)S(C)(=O)=O [Example 3.24, N-Acetyl-N-[1-acetyl-7-isopropyl-6-(2-methyl-2H-pyrazol-3-yl)-2,4-dioxo-1,4-dihydro-2H-quinazolin-3-yl]-methanesulfonamide] | 100

Same assay, conditions: Mus musculus, po; Table 5; 50 mg/kg, p.o., pre-treatment time −0.5 h; read-out: %-Protection

Row | SMILES | responders at 50 mg/kg [%]
25 | CC(=O)N(n1c(=O)c2cc(-c3ccnn3C)c(C(C)C)cc2n(C(C)=O)c1=O)S(C)(=O)=O [Example 3.24, N-Acetyl-N-[1-acetyl-7-isopropyl-6-(2-methyl-2H-pyrazol-3-yl)-2,4-dioxo-1,4-dihydro-2H-quinazolin-3-yl]-methanesulfonamide] | 100

Same assay, conditions: Mus musculus, sc; Dose: 25 mg/kg, s.c., pre-treatment time −4 h (footnote f); read-out: %-Protection

Row | SMILES | responders at 25 mg/kg [%]
26 | CCCCCCCCCC(=O)N(n1c(=O)[nH]c2cc(C(C)C)c(-c3ccnn3C)cc2c1=O)S(C)(=O)=O [Example 3.15, N-Decanoyl-N-[7-isopropyl-6-(2-methyl-2H-pyrazol-3-yl)-2,4-dioxo-1,4-dihydro-2H-quinazolin-3-yl]-methanesulfonamide] | 20

Same assay, conditions: Mus musculus; dose of up to 50 mg/kg, p.o., 1 hour prior to induction of convulsions; read-out: %-Protection

Row | SMILES | responders at 50 mg/kg [%]
27 | CCCCCCCCCC(=O)N(n1c(=O)[nH]c2cc(C(C)C)c(-c3ccnn3C)cc2c1=O)S(C)(=O)=O [Example 3.15, N-Decanoyl-N-[7-isopropyl-6-(2-methyl-2H-pyrazol-3-yl)-2,4-dioxo-1,4-dihydro-2H-quinazolin-3-yl]-methanesulfonamide] | 0

Same assay, conditions: Table 5; 50 mg/kg, p.o., pre-treatment time −1 h

Row | SMILES | %-Protection [%]
28 | CC(=O)N(n1c(=O)c2cc(-c3ccnn3C)c(C(C)C)cc2n(C(C)=O)c1=O)S(C)(=O)=O [Example 3.24, N-Acetyl-N-[1-acetyl-7-isopropyl-6-(2-methyl-2H-pyrazol-3-yl)-2,4-dioxo-1,4-dihydro-2H-quinazolin-3-yl]-methanesulfonamide] | 100
